This is an account of results in ChEMBL document CHEMBL4627339, “Structural motives controlling the binding affinity of 9,10-bis(methylpyridinium)anthracenes towards DNA” (Bioorg Med Chem, 2020).

What all share (assay type): nucleic-acid assay
Experiment [1] relates to Calf thymus DNA. Nature of the experiment: Binding affinity to calf thymus DNA assessed as DNA intercalation by measuring helix stabilization by DNA melting studies based absorbance analysis. Conditions: Bos taurus.
For experiment [2], the system named is Calf thymus DNA. The experiment can be described thus: Binding affinity to calf thymus DNA assessed as bathochromic shift in maximum absorption at 50 uM by UV-Vis absorption spectroscopic method. Particulars: Bos taurus.
Experiment [3] deals with Calf thymus DNA. The experiment can be described thus: Binding affinity to calf thymus DNA assessed as hypochromism at 50 uM by UV-Vis spectroscopy relative to control. Conditions: Bos taurus.
Experiment [4] deals with Calf thymus DNA. The experiment can be described thus: Binding affinity to calf thymus DNA assessed as binding constant by UV-Vis absorption spectroscopic method. Conditions: Bos taurus.
Experiment [5] deals with Poly(dA-dT)oligonucleotide. The experiment can be described thus: Binding affinity to poly(dA:dT) dsDNA (unknown origin) assessed as increase in fluorescence intensity by fluorescence spectroscopy.
Experiment [6] relates to Calf thymus DNA. Nature of the experiment: Binding affinity to calf thymus DNA assessed as groove binding by measuring induced circular dichroism with negative signs around 370-380 nm by CD spectroscopy. Particulars: Bos taurus. For orientation: Circular dichroism is the unequal absorption of left and right circularly polarised light.
Experiment [7] deals with Calf thymus DNA. The experiment can be described thus: Binding affinity to calf thymus DNA assessed as minor groove binding by measuring rise in absorbance at melting temperature between 76 and 77 degC by DNA melting studies based absorbance analysis. Conditions: Bos taurus.
Experiment [8] concerns Calf thymus DNA. Nature of the experiment: Binding affinity to calf thymus DNA assessed as groove binding by measuring blue-shift in maximum emission intensity of compound by fluorescence spectroscopy. Conditions: Bos taurus.
For experiment [9], the system named is Poly(dG-dC)oligonucleotide. The experiment can be described thus: Binding affinity to poly(dG:dC) dsDNA (unknown origin) assessed as red shift in absorption maxima by UV-Vis spectroscopy.
Experiment [10] relates to Poly(dA-dT)oligonucleotide. The experiment can be described thus: Binding affinity to poly(dA:dT) dsDNA (unknown origin) assessed as increase in intensity with one ligand binding for two base pairs by UV-Vis spectroscopy.
For experiment [11], the system named is Calf thymus DNA. The experiment can be described thus: Binding affinity to calf thymus DNA assessed as groove binding by measuring spectral changes up to compound:base pair concentration ratio of 1:39 in presence of 300 mM NaCl by UV-Vis spectroscopic method. Particulars: Bos taurus.
The test system of experiment [12] is Poly(dA-dT)oligonucleotide. Nature of the experiment: Binding affinity to poly(dA:dT) dsDNA (unknown origin) assessed as binding constant by fluorescence spectroscopy.
Experiment [13] has as its system Calf thymus DNA. The experiment can be described thus: Binding affinity to calf thymus DNA assessed as loss of vibronic fine structure at 50 uM by UV-Vis absorption spectroscopic method. Conditions: Bos taurus.
The subject of experiment [14] is Poly(dA-dT)oligonucleotide. The experiment can be described thus: Binding affinity to poly(dA:dT) dsDNA (unknown origin) assessed as red shift in absorption maxima by UV-Vis spectroscopy.
Experiment [15] has as its system Poly(dG-dC)oligonucleotide. The experiment can be described thus: Binding affinity to poly(dG:dC) dsDNA (unknown origin) assessed as increase in fluorescence intensity by fluorescence spectroscopy.

SMILES strings stand for the structures. Activity calls are given as the source filed them. The calls are words filed in the database; no cut-off is given here.

In the case of `C[n+]1ccc(-c2c3ccccc3c(-c3cc[n+](C)cc3)c3cc(C(C)(C)C)ccc23)cc1`, the outcome in experiment [1] and in [6] was inactive. In addition, the outcome in experiment [2], in [5], in experiment [7] and in experiment [8] was Active. For the same molecule, in [3], the Activity was 66%. Further, the KB in experiment [4] was 7.3 ×10³ /M.

Turning to `C[n+]1cccc(-c2c3ccccc3c(-c3ccc[n+](C)c3)c3ccccc23)c1`, in experiment [1], the result was inactive. The result in [2], in [5], in experiment [6], in [7] and in experiment [8] was Active. Also, in experiment [3], the Activity stood at 41%. For the same molecule, in experiment [4], the KB is 1.8 ×10⁵ /M.

On to `CCc1ccc2c(-c3cc[n+](C)cc3)c3ccccc3c(-c3cc[n+](C)cc3)c2c1`, for which the outcome in experiment [1] was inactive. Moreover, the result in experiment [2], in experiment [5], in [6], in experiment [7] and in experiment [8] was Active. In experiment [3], the Activity worked out at 55%. Besides, the KB in experiment [4] is 1.2 ×10⁴ /M.

As to `C[n+]1ccc(-c2c3ccccc3c(-c3cc[n+](C)cc3)c3ccccc23)cc1`, the result in [9], in experiment [1] and in experiment [15] was inactive. In addition, the outcome in [10], in [11], in experiment [2], in experiment [13], in [14] and in experiment [5] was Active. Besides, the outcome in [6], in experiment [7] and in experiment [8] was Active. In addition, the K in experiment [12] came out at 1.6 ×10⁵ /M. Moreover, the Activity in experiment [3] is 74%. Further, the KB in [4] turned out to be 8.4 ×10⁴ /M.

Turning to `c1ccc2c(-c3ccncc3)c3ccccc3c(-c3ccncc3)c2c1`, the outcome in experiment [2] was inactive.

Consider `Cc1ccc2c(-c3cc[n+](C)cc3)c3ccccc3c(-c3cc[n+](C)cc3)c2c1`, for which, in experiment [1], the result was inactive. For the same molecule, in [12], the K worked out at 1 ×10⁵ /M. Also, the outcome in [2], in experiment [5], in [6], in experiment [7] and in [8] was Active. In addition, the Activity in experiment [3] came to 41%. Moreover, the KB in experiment [4] was 6.2 ×10⁴ /M.

Regarding `C[n+]1ccccc1-c1c2ccccc2c(-c2cccc[n+]2C)c2ccccc12`, the result in experiment [2], in [5], in [6] and in experiment [8] was inactive.

Consider `C[n+]1cc(-c2c3ccccc3c(-c3cc4ccccc4[n+](C)c3)c3ccccc23)cc2ccccc21`, for which the result in [1] was inactive. Also, the result in experiment [2], in experiment [5], in experiment [6], in [7] and in experiment [8] was Active. For the same molecule, the Activity in experiment [3] was 56%. Moreover, the KB in experiment [4] was found to be 2.8 ×10⁵ /M.
